Values of other authors in paper PMC12281572.
“And” between values parts separate entries of the source, which are not always exact repeats. Equal entries are not always repeated.

Experiment: FTIR, 4-fluorophenol as donor (the pK_BHX database, per the paper)
Conditions: CCl4; 25 C

Compound | pK_BHX (log10 Kf of the 1:1 H-bond complex with 4-fluorophenol, by FTIR)
N#Cc1c(F)c(F)c(F)c(F)c1F | 0.01 log units
NC1CC1 | 1.72 log units
COc1cccc(N=C(c2ccccc2)N(C)c2ccccc2)c1 | 1.41 log units
CN(C)c1cccc2cccc(N(C)C)c12 | -0.24 log units
FC12CC3CC(CC(C3)C1)C2 | 0.31 log units
C1CSCS1 | -0.38 log units
CN(C)C(=O)c1ccc(N(C)C)cc1 | 2.49 log units
CC12CCC(CC1=N[N+](=O)[O-])C2(C)C (centres unmarked) | 0.34 log units
CC(C)C(=O)C(C)C | 1.08 log units
CCCCCl | -0.41 log units
C#CCN(C)C | 1.6 log units
O=c1ccocc1 | 2.03 log units
CN(C)n1cccc1 | 0.23 log units
Cc1cccc(C)c1C#N | 0.86 log units
Cc1cnc(C)cn1 | 1.29 log units
C#CC(C)=O | 0.68 log units
Cc1cc(C)c(C)cc1C | -0.15 log units
CC(=O)c1ccc(C(F)(F)F)cc1 | 0.78 log units
NCCN | 2.25 log units
C=CCN(CC=C)CC=C | 1.34 log units
COc1ccc(N(C)C(=Nc2ccc(Br)cc2)c2ccccc2)cc1 | 1.23 log units
c1cscn1 | 1.37 log units
C1CCNC1 | 2.59 log units

Compound | pK_BHX (log10 Kf of the 1:1 H-bond complex with 4-fluorophenol, by FTIR)
O=C1CCCCCCCCCCC1 | 1.23 log units
CCOCCOCC | 1.09 log units
CCN(CC)C(=S)N(C)C | 1.29 log units
[O-][n+]1ccccc1 | 2.72 log units
c1cc(N2CCCC2)ccn1 | 2.93 log units
CC(=NC#N)N(C)C | 2.24 log units
CN(C(=Nc1ccc(Br)cc1)c1ccccc1)c1ccccc1 | 1.11 log units
c1ccc(-c2ccnc3c2ccc2c(-c4ccccc4)ccnc23)cc1 | 3.26 log units
Clc1cccc(N=C(Nc2ccccc2)c2ccccc2)c1 | 1.05 log units
CCOC(=O)c1ccc(F)cc1 | 0.88 log units
CC(C)(C)c1ccncc1 | 2.11 log units
CN=CN(C)C | 2.7 log units
CCCCc1ccccn1 | 1.88 log units
N#Cc1cc(Cl)cc(Cl)c1 | 0.52 log units
CSC(C)(C)C | 0.25 log units
C(=Nc1ccccc1)Nc1ccccc1 | 2.13 log units
C#CCN=CN(C)C | 2.3 log units
CC(C)N(C(=O)C(C)(C)C)C(C)C | 2.03 log units
CSC1CCCCC1 | 0.24 log units
CCCCCI | -0.37 log units
O=C1c2ccccc2Cc2ccccc21 | 1.25 log units
c1ccc(C(c2ccccc2)c2ccccc2)cc1 | -0.5 log units
COc1ccc(Cl)cc1 | -0.25 log units

Compound | pK_BHX (log10 Kf of the 1:1 H-bond complex with 4-fluorophenol, by FTIR)
c1ccc2nc3ccccc3nc2c1 | 1.22 log units
COc1cccc(OC)c1 | -0.08 log units
CN(C)S(=O)(=O)c1ccccc1 | 0.89 log units
O=C1CCCCO1 | 1.57 log units
CC(=O)N1CCCC1 | 2.61 log units
CCN(CC)CC | 1.98 log units
Cc1ccc(O)cc1 | 0.03 log units
Clc1ccccn1 | 1.05 log units
CN(C)C=Nc1ccc(C#N)cc1 | 1.32 log units and 1.23 log units
CC(C)SC(C)C | 0.3 log units
CN(C=O)c1ccccc1 | 1.74 log units
CCOS(=O)OCC | 1.07 log units
Cc1ccc(C)c(C)c1C | -0.14 log units
CC(=O)c1ccc2ccccc2c1 | 1.13 log units
CC(C)CN=CN(C)C | 2.52 log units
CCN1C(=O)C=CC1=O | 0.68 log units
c1ncn(C2CCCCC2)c1C1CCCCC1 | 3.12 log units
CC(C)(C)OC(C)(C)C | 0.75 log units
c1cc2c3c(c1)CCCN3CCC2 | 0.39 log units
N#CN1CCOCC1 | 1.34 log units
CC(=O)N(C(C)C)C(C)C | 2.47 log units
c1ccc(C2CCCN2)cc1 (centres unmarked) | 1.93 log units
CC(C)c1cccc(C(C)C)c1N | 0.37 log units

Compound | pK_BHX (log10 Kf of the 1:1 H-bond complex with 4-fluorophenol, by FTIR)
C=CCN(C)C | 1.92 log units
CC(C)c1ccccc1 | -0.34 log units
C=Cc1ccncc1 | 1.95 log units
COc1ccc(C)cc1 | 0.08 log units
COc1ccc(C(=O)c2ccccc2)cc1 | 1.27 log units
CC(=O)c1cccc([N+](=O)[O-])c1 | 0.18 log units
COC(=O)c1ccccc1OC | 1.49 log units
CNC=O | 1.96 log units
NCc1cc(Cl)cc(Cl)c1 | 1.27 log units
O=C(c1ccccc1)N(c1ccccc1)c1ccccc1 | 1.61 log units
CC(=O)c1ccc(C(C)(C)C)cc1 | 1.25 log units
CN(C)CCCn1c2ccccc2c2ccccc21 | 1.88 log units
c1ccc2c(c1)CCO2 | 0.21 log units
Cc1ccc(C(=O)N(C)C)cc1 | 2.27 log units
C1CCOCC1 | 1.23 log units
C1=COCC1 | 0.53 log units
COCCOC | 1.02 log units
FC(F)(F)c1cccc(C2CCCN2)c1 (centres unmarked) | 1.38 log units
CC(=Nc1ccc(Br)cc1)Nc1ccc(C)cc1 | 1.58 log units
ClC12CC3CC(CC(C3)C1)C2 | -0.18 log units
N#Cc1ccc(C(F)(F)F)cc1 | 0.54 log units
CN(C)C(=O)c1ccc([N+](=O)[O-])cc1 | 1.9 log units
CCOC(=O)C12CC3CC(CC(C3)C1)C2 | 1.06 log units

Compound | pK_BHX (log10 Kf of the 1:1 H-bond complex with 4-fluorophenol, by FTIR)
O=C(Cl)N(c1ccccc1)c1ccccc1 | 0.75 log units
Cn1cccn1 | 1.84 log units
COc1ccc(N=C(c2ccccc2)N(C)c2ccccc2)cc1 | 1.53 log units
CN(C)C(=S)c1ccccc1 | 1.02 log units
CCSCC | 0.25 log units
CCCCCCCCN(CCCCCCCC)CCCCCCCC | 1.57 log units
CN(C)C=NCc1ccc(Cl)cc1 | 2.12 log units
CC(=O)c1cccc(C(F)(F)F)c1 | 0.72 log units
CC12CCC(CC1)C(C)(C)O2 | 1.38 log units
CC(C)c1cc(C(C)C)cc(C(C)C)c1 | -0.18 log units
CC(C)c1ccccn1 | 1.76 log units
COc1ccccc1C#N | 1.06 log units
Cc1cc[n+]([O-])cc1 | 3.12 log units
CC(C)N(C)C | 2.11 log units
CN(C)C(=O)c1ccc(F)cc1 | 2.14 log units
COc1ccc(C#N)cc1 | 0.97 log units
c1ccncc1 | 1.86 log units
OCc1ccccc1 | 0.86 log units
CCC#CCC | -0.1 log units
CN=C(N(C)C)N(C)C | 3.16 log units
O=CN1CCCC1 | 2.31 log units
